In a melting point compilation (Tetko et al.; mined from patent text by program, amines drawn as free bases though some values may be those of a salt) one finds melting point data, which are given here for 86 molecules.

Structures are written as SMILES. Residues, ends and D or L forms follow the SMILES beside them. *: point of attachment. Cbz = O=C(OCc1ccccc1)*

Broadly, the melting point is the temperature of the solid-liquid transition. `O=C(O)CCNc1ccc2c(C(=O)NCC34CC5CC(CC(C5)C3)C4)c(Cl)ccc2n1` displayed a melting point of 251 to 252 °C.

Turning to `COc1c(Cl)cc(F)cc1C=O`, the melting point was 59 to 62 °C.

In the case of `CC[C@@H]1c2onc(-c3ccc(Cl)cc3)c2CC[C@H]1C(=O)O` (relative stereo), the melting point lay within 162 to 163 °C.

As for `c1ccc2c(c1)CCC21CCN(CCCCN2CCC3(CCc4ccccc43)CC2)CC1`, the melting point fell in the range of 113 to 115 °C.

The molecule `OC(=S)Cc1cc(Cl)ccc1Cl` registered a melting point of 118 °C.

Regarding `COc1cc(CCNC(=O)Cc2ccc(Br)cc2)cc(OC)c1`, the melting point fell in the range of 86 to 88 °C.

`CCOC(=O)c1cnc(C(=O)O)cn1` came in with a melting point of 150 to 153 °C.

`CCCCOC(=O)C=C(C)C=CC=C(C)C=Cc1c(C)c(C)c(OC)c(C)c1C` had a melting point of 230 to 233 °C.

The molecule `O=C(NC1CCC(CCN2CCN(c3nccc4c3OCC4)CC2)CC1)c1ccc(N2CCS(=O)(=O)CC2)cc1` (stereo unspecified) yielded a melting point of 260 °C.

`COc1ccc(/C=C(\CSC(C)=O)C(=O)O)cc1` showed a melting point of 155 °C.

Molecule `COc1ccnc(C(=O)N[C@H]2COC(=O)[C@H](Cc3ccccc3)[C@@H](OC(=O)C(C)C)[C@H](C)OC2=O)c1OCc1ccccc1` returned a melting point of 169 to 170 °C.

`CC(C)(C)c1cc(C(c2ccc(F)cc2)N2CCCCC2)c(O)c(C(C)(C)C)c1` (stereo unspecified) showed a melting point of 135 to 136 °C.

`O=C(c1cc(=O)c2ccc(OCc3ccccc3)cc2[nH]1)N1CCC(Cc2ccccc2)CC1` yielded a melting point of 228 °C.

As for `O=C(CCC(O)c1ccccc1)NCc1ccccc1` (stereo unspecified), the melting point was in the range of 92 to 94 °C.

Regarding `C=CCc1c2n(c3ccccc13)C(=O)C(Cc1nc[nH]c1C)CC2` (stereo unspecified), the melting point was in the range of 215 to 217 °C.

In the case of `O=C(/C=C/c1ccc(S(=O)(=O)N2CCN(c3ccccc3F)CC2)cc1)NO`, the melting point lay in the range of 196 to 197 °C.

`Nc1nc(Nc2ccc([N+](=O)[O-])cc2)sc1C(=O)c1ccccc1[N+](=O)[O-]` returned a melting point of 266 to 268 °C.

`CSC1=NCCN1C(=O)c1cccnc1Cl` registered a melting point of 100 to 102 °C.

The molecule `N#Cc1ccccc1/C=C/C=O` gave a melting point of 107 to 110 °C.

For the molecule `CCNC(=O)COc1cc2c(c(Cl)c1Cl)C(=O)C(C)(C(C)C)C2` (stereo unspecified), the melting point was found to be 146 °C.

For `O=C(CP(=O)(O)O)NC12CC3CC(CC(C3)C1)C2`, the melting point was 190 to 194 °C.

On to `O=C(O)C=NOC(CCCc1ccc(Cl)cc1)c1ccc(OCc2ccc3ccccc3n2)cc1` (stereo unspecified), for which the melting point fell in the range of 174 to 177 °C.

With `O=[N+]([O-])c1ccc2c(c1)C=C(N1CCN(Cc3ccc4c(c3)OCO4)CC1)c1ccccc1S2`, the melting point is 188 to 190 °C.

Regarding `NS(=O)(=O)c1cc2cc(-c3nc(C(F)(F)F)c[nH]3)ccc2s1`, the melting point was 285 to 286 °C.

Molecule `O=CNc1nc(CSc2ccc([N+](=O)[O-])cc2)cs1` yielded a melting point of 158 to 160 °C.

For the molecule `O=C1NCCN1C(=O)N1CCOCC1`, the melting point is 158 °C.

Consider `CSc1cc(C(C)(C)C)c(O)c(C(=O)O)c1C`, for which the melting point fell in the range of 138 to 139 °C.

Consider `CC1=CC(c2ccc(Cl)c(Cl)c2)C2=C(CCCC2=O)N1` (stereo unspecified), for which the melting point was 199 to 201 °C.

Turning to `COc1c(N(C)C)cc(CC(C#N)=CNc2ccccc2)cc1N(C)C(C)=O`, the melting point lay in the range of 176 to 178 °C.

With `CC1(C)N=C(NC(=O)c2ccco2)N=C(NC(=O)c2ccco2)N1OCc1cccc2ccccc12`, the melting point lay in the range of 173 to 177 °C.

As for `CCCCOc1nc(N)nc2c1ncn2C1C=CC(CO)C1` (stereo unspecified), the melting point was in the range of 122 to 123 °C.

As to `CCOc1ccc(-c2nc3c4ccccc4ccc3n2C)cc1`, the melting point was 138 to 139 °C.

In turn, `Cc1ccc(C(=O)Nc2ccc(N3CCN(Cc4ccc[nH]4)CC3)cc2)c(-c2ccc(C(F)(F)F)cc2)c1` registered a melting point of 196 to 198 °C.

As for `CN(c1nc(-c2cc3ccccc3[nH]c2=O)cs1)S(=O)(=O)c1cccc(F)c1`, the melting point is 247 to 249 °C.

As to `CN(C(=O)CN1C(=O)C2(COc3cc4c(cc32)CCO4)c2ccccc21)c1ccccc1` (stereo unspecified), the melting point was in the range of 234 to 238 °C.

For `N#CCCCCCN1CCc2c(c3cc(F)ccc3n2-c2ccc(F)cc2)C1`, the melting point fell in the range of 90 to 98 °C.

Molecule `COc1cc2c(c3c1OC(C)(C)C3)C(c1cccc(N3CCNS3(=O)=O)c1)=NC(C)(C)C2` had a melting point of 145 to 147 °C.

For the molecule `Cn1nc2c(-c3ccc(Cl)cc3Cl)cccc2c1-c1nnco1`, the melting point was 199 to 201 °C.

`COc1ccc(C2C3=C(COC3=O)Nc3ccc4nn[nH]c4c32)c(F)c1` (stereo unspecified) yielded a melting point of 308 to 310 °C.

Take `CCOC(=O)C=C(C)Nc1ccc2nc[nH]c2c1`: the melting point was in the range of 160 to 162 °C.

`COc1cc2c(Nc3ccc(Sc4nccn4C)c(Cl)c3)c(C#N)cnc2cc1N1CCN(C2CCN(C)CC2)CC1` yielded a melting point of 220 to 226 °C.

In the case of `COc1ccc(-c2cc(C)cn2-c2ccc(S(=O)(=O)NC(C)=O)cc2)cc1`, the melting point is 215 to 217 °C.

In the case of `CCCC1C(=O)N(S(=O)(=O)c2ccc3ccccc3c2)C2CCN(C(=O)CN3CCCCC3)C12` (stereo unspecified), the melting point lay in the range of 161 to 163 °C.

Consider `CC1=NC(=Cc2ccc(F)cc2)C(=O)O1`, for which the melting point came to 156 °C.

`COc1nc(NC(=O)NS(=O)(=O)c2csc3ccccc23)nc(OC)n1` returned a melting point of 152 °C.

In turn, `O=C(O)CCc1cccc(CNC(=O)C2Cc3ccccc3N2S(=O)(=O)c2ccc(-c3cccc(C(F)(F)F)c3)cc2)c1` (stereo unspecified) gave a melting point of 135 °C.

For `CCC[C@H]1CC[C@H](OC(=O)c2ccc(OCC)c(F)c2F)CC1`, the melting point was determined as 93 °C.

`O=C(O)C1=C(C(F)(F)F)COc2ccc3ccccc3c21` registered a melting point of 246 to 249 °C.

`COc1cc2ncc(N[C@H]3CC[C@@H](O)CC3)nc2cc1OC` displayed a melting point of 65 to 67 °C.

In turn, `CCOC(=O)c1cccc2c(=O)cc(-c3ccc(OCc4ncc5ccccc5n4)cc3)oc12` returned a melting point of 265 to 266 °C.

Turning to `OC[C@H](O)[C@@H](O)CCNCc1ccccc1`, the melting point was 117 to 118 °C.

`CCCC1=C(C#N)C(c2cccc3ccccc23)c2c[nH]nc2N1` (stereo unspecified) had a melting point of 263 °C.

The molecule `Cc1nn(-c2cc(Sc3ccc(O)cc3)c(Cl)cc2Cl)c(=O)n1C(F)F` displayed a melting point of 228 to 229 °C.

Molecule `CCCc1c(OCCCCCC#N)ccc(C(=O)c2ccccc2O)c1O` had a melting point of 62 to 63 °C.

Consider `CCCCCCCCCCCCCCCCCCSC(=O)Nc1ccc(NC(=O)NS(=O)(=O)c2ccc(OC)cc2)cc1`, for which the melting point came to 195 °C.

`[N-]=[N+]=NC[C@H]1O[C@H]([C@H](O)CO)[C@H](O)[C@@H]1O` displayed a melting point of 86 °C.

For the molecule `CC=CCn1c(C)c(C)c2cnnc(CCc3ccc(F)cc3F)c21`, the melting point lay in the range of 114 to 118 °C.

Turning to `COC(CC(=O)O)C(O)=Nc1cc(Cl)cc(Cl)c1` (stereo unspecified), the melting point lay within 125 to 126 °C.

In turn, `Cc1cc(C(=O)O)cc(C)c1N=C1NCCN1` showed a melting point of 116 to 117 °C.

Regarding `O=C(c1ccccc1)c1cccc(Cl)c1[N+](=O)[O-]`, the melting point turned out to be 126 °C.

For `COc1cc(COc2nn(-c3ccccc3)cc2Cn2cncn2)ccc1OCc1nc(-c2ccco2)oc1C`, the melting point was 149 to 150 °C.

On to `Cc1nc(N)n(C)c(=O)c1CCN1CCN(c2noc3ccccc23)CC1`, for which the melting point was 201 °C.

For the molecule `O=C1c2ccccc2-n2cncc2[C@@H]2CCN12`, the melting point is 195 to 197 °C.

On to `CC(C)Nc1ncnc2cscc12`, for which the melting point is 230 °C.

`CC(S)CNC(=O)OCc1ccc([N+](=O)[O-])cc1` (stereo unspecified) gave a melting point of 54 to 56.5 °C.

Consider `CCOC(=O)C(C)(C)Oc1ccc(OCCn2c(=O)sc3cc(C(=O)c4cccc(Cl)c4)ccc32)cc1`, for which the melting point fell in the range of 125 to 126 °C.

In turn, `O=C(O)c1cn(C2CC2)c2cc(N3CCNC(c4ccoc4)C3)c(F)cc2c1=O` (stereo unspecified) had a melting point of 202 to 204 °C.

`O=C(O)C1=Cc2cc(Cl)c(Oc3cccnc3)cc2OC1C(F)(F)F` (stereo unspecified) displayed a melting point of 238 to 239 °C.

Molecule `CC(=O)c1nc2c(OCc3ccccc3)cccc2n1C` gave a melting point of 102 to 104 °C.

In turn, `COC(=O)c1cc2c3cc(C(C)=O)ccc3n(C)c2s1` gave a melting point of 196 to 198 °C.

With `COc1ccc(C(=O)Nc2nc(-c3cccc(C#N)c3)c(-n3cncn3)s2)cc1`, the melting point fell in the range of 292 to 294 °C.

Take `CCOC(=O)CCc1cn(Cc2ccccc2)nc1O`: the melting point fell in the range of 75 to 76 °C.

Molecule `COc1cc(C(=O)O)ccc1OCc1nc(-c2ccccc2)oc1C` had a melting point of 219 to 220 °C.

Molecule `CCCC1C(=O)N(S(=O)(=O)c2ccc3ccccc3c2)C2CCN(S(=O)(=O)CCCN3CCOCC3)C12` (stereo unspecified) came in with a melting point of 189 to 192 °C.

`Cc1cc(NC(=O)c2ccccc2O)cc(C)c1O` showed a melting point of 142 to 145 °C.

The molecule `CCOCc1nc2c(N)nc(C)c(C)c2n1NC(C)C` registered a melting point of 110 to 120 °C.

The molecule `CCn1c(=O)n(CC)c2cc3c(N4CCN(C(=O)Nc5ccc(Oc6ccccc6)cc5)CC4)ncnc3cc21` registered a melting point of 168 to 169 °C.

The molecule `CN1C(=O)CN=C(c2ccccc2F)c2cc(NC(=O)NCCOC(C)(C)C)ccc21` gave a melting point of 177 °C.

Turning to `CCCCCCCCCCCCNC(N)=O`, the melting point was 105 to 107 °C.

With `CC(C)(C1OCCO1)C(O)(COc1cccc2ccccc12)Cn1ccnc1` (stereo unspecified), the melting point was determined as 126 °C.

With `Cc1cc(O)c(S(=O)(=O)Cc2ccc(Cl)c(Cl)c2)c(=O)o1`, the melting point lay within 144 to 145 °C.

Regarding `CCOC(=O)c1ccc(Cl)nc1NCc1ccc(OC)c(Cl)c1`, the melting point was in the range of 108 to 112 °C.

As to `CCCCCCCCC(O)CNCCCNCC(O)CCCCCCCC` (stereo unspecified), the melting point was in the range of 104 to 108 °C.

`NC(=O)CCC(NC(=O)OCc1ccccc1)C(=O)NCC(=O)NCC(=O)NC(CO)C(=O)NC(CC(N)=O)C(=O)NC(Cc1ccccc1)C(N)=O` (stereo unspecified) (Cbz-QGGSNF-NH2; configuration not given here) came in with a melting point of 225 to 227 °C.

The molecule `CCN1c2ncc(CCl)cc2C(=O)N(C)c2ccc(Cl)nc21` returned a melting point of 133 to 134 °C.

Regarding `Cc1cccc(N2Cc3ccccc3P2(=O)C(C)C)c1` (stereo unspecified), the melting point lay in the range of 112 to 113 °C.
